# Measured values taken from publication PMC8991199, “Promiscuity mapping of the S100 protein family using a high-throughput holdup assay” (Scientific Reports, 2022).
# Residue numbers refer to the chain shown, from its start.
# Legend:
# Assay type in all cases: binding
# S100A13 = biological target: T1, S100A13 (Homo sapiens, UniProt Q99584); assay: direct fluorescence polarization (FP), S100A13; details: S100A13, 50 nM labeled foldamer, 20 mM HEPES pH 7.5, 150 mM NaCl, 1 mM CaCl2, 0.5 mM TCEP, 0.01% Tween20, quadratic fit, mean ± SEM, three technical repeats, threshold 1 mM
# T1 sequence (Q99584 1-98): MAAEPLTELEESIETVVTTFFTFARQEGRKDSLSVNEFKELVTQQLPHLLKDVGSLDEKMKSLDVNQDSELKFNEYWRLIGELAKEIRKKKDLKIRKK
# Protocol: (§1) HTP (and also low-throughput) measurements generally need to be validated by an orthogonal approach to eliminate experimental artifacts. […] This way, we chose WL, IF, WW, YF, IL, VL, TW, RF, RR, TI, TM, and after resynthesizing with a fluorescent label at the C-terminus (Figs. S15–S26, Table S1), the S100ome was tested against the labeled foldamers by direct fluorescence polarization (FP) (Fig. 3A). In this assay, the association of the fluorescently labeled foldamer and the S100 protein of interest is monitored, through the change in polarization of the emitted light by the fluorophore upon the binding event. In direct FP, the presence of the fluorophore might change the binding affinity of some foldamers. […] Nevertheless, we assumed that the fluorophore would affect all foldamers that target the same binding site to the same degree, because the foldamer scaffold is rigid. Defining the threshold of detection at the dissociation constant of 1 mM, we identified 87 interactions between the selected foldamer fragments and the S100ome out of 220 possible interactions (Table 1, Fig. S4-14).
# (§2) Briefly, S100 proteins were cloned into a modified pET15b vector with a TEV protease cleavable N-terminal His6-tag and expressed in Escherichia coli BL21 (DE3) cells, followed by Ni^2+-affinity chromatography. For HU assay, S100 proteins were further purified by either hydrophobic interaction chromatography or ion exchange chromatography without the cleavage of the N-terminal His6-tag applying standard conditions. For direct FP measurements, the N-terminal His6-tag was cleaved, and the S100 proteins were purified by hydrophobic interaction chromatography, ion exchange chromatography or size exclusion chromatography. The quality of the recombinant proteins was checked by SDS-PAGE analysis in all cases. The concentration of the recombinant S100 proteins was determined by UV spectrophotometry using the absorbance of Tyr and Trp residues.
# (§3) In direct fluorescence polarization assays, S100 proteins were diluted in a buffer containing 50 nM labeled foldamer, 20 mM HEPES pH 7.5, 150 mM NaCl, 1 mM CaCl2, 0.5 mM TCEP and 0.01% Tween20. The dilution series (50 µl) were divided into three technical repeats and transferred (15 µl) to a 384-well microplate. In competitive fluorescence polarization assays, the buffer applied in direct measurements was supplemented with the S100 protein of interest to reach a saturation of 60–80%. This mixture was titrated with the competitor (i.e. the unlabeled peptide). Fluorescence polarization was measured in 8 different S100 concentrations (one of which contained no S100 protein) on a Synergy H4 plate reader using 485 ± 20 nm and 528 ± 20 nm band-pass filters for excitation and emission, respectively. The Kd values were obtained by fitting the data from the FP measurements with the python-based ProFit software using quadratic and competitive binding equation for direct and competitive FP, respectively. The detection threshold was based on two parameters. First, we rejected all fitted dissociation constants above 1 mM.
# S100A3 = biological target: T2, S100A3 (Homo sapiens, UniProt P33764); assay: direct fluorescence polarization (FP), S100A3; details: S100A3, 50 nM labeled foldamer, 20 mM HEPES pH 7.5, 150 mM NaCl, 1 mM CaCl2, 0.5 mM TCEP, 0.01% Tween20, quadratic fit, mean ± SEM, three technical repeats, threshold 1 mM
# T2 sequence (P33764 1-101): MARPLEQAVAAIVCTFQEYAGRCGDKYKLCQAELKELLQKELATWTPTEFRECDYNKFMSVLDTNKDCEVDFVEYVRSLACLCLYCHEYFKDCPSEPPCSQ
# Protocol: as §1, §2, §3
# S100A7 = biological target: T3, S100A7 (Homo sapiens, UniProt P31151); assay: direct fluorescence polarization (FP), S100A7; details: S100A7, 50 nM labeled foldamer, 20 mM HEPES pH 7.5, 150 mM NaCl, 1 mM CaCl2, 0.5 mM TCEP, 0.01% Tween20, quadratic fit, mean ± SEM, three technical repeats, threshold 1 mM
# T3 sequence (P31151 1-101): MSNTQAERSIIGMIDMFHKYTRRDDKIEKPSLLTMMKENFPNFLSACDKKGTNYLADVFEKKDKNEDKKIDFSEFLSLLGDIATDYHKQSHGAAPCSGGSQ
# Protocol: as §1, §2, §3
# S100Z = biological target: T4, S100Z (Homo sapiens, UniProt Q8WXG8); assay: direct fluorescence polarization (FP), S100Z; details: 50 nM labeled foldamer, 20 mM HEPES pH 7.5, 150 mM NaCl, 1 mM CaCl2, 0.5 mM TCEP, 0.01% Tween20, quadratic fit, mean ± SEM, three technical repeats, threshold 1 mM
# T4 sequence (Q8WXG8 1-99): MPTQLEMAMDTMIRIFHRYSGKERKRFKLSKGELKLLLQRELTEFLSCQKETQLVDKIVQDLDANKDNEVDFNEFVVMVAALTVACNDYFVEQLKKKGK
# Excerpt: (§4) HTP (and also low-throughput) measurements generally need to be validated by an orthogonal approach to eliminate experimental artifacts. […] In this assay, the association of the fluorescently labeled foldamer and the S100 protein of interest is monitored, through the change in polarization of the emitted light by the fluorophore upon the binding event. In direct FP, the presence of the fluorophore might change the binding affinity of some foldamers. […] Nevertheless, we assumed that the fluorophore would affect all foldamers that target the same binding site to the same degree, because the foldamer scaffold is rigid.
# as §2, §3
# S100A2 = S100A2 (Homo sapiens, UniProt P29034); assay: direct fluorescence polarization (FP), S100A2; details: S100A2, 50 nM labeled foldamer, 20 mM HEPES pH 7.5, 150 mM NaCl, 1 mM CaCl2, 0.5 mM TCEP, 0.01% Tween20, quadratic fit, mean ± SEM, three technical repeats, threshold 1 mM
# Chain of S100A2 (P29034 whole entry): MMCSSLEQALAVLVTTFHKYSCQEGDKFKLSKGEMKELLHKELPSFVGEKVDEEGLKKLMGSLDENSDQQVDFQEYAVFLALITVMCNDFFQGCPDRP
# Excerpt: as §4, §2, §3
# S100P = biological target: T5, S100P (Homo sapiens, UniProt P25815); assay: direct fluorescence polarization (FP), S100P; details: 50 nM labeled foldamer, 20 mM HEPES pH 7.5, 150 mM NaCl, 1 mM CaCl2, 0.5 mM TCEP, 0.01% Tween20, quadratic fit, mean ± SEM, three technical repeats, threshold 1 mM
# T5 sequence (P25815 1-95): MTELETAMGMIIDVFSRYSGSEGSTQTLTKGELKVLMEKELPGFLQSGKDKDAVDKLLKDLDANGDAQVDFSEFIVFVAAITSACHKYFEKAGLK
# Excerpt: as §4, §2, §3
# S100A15 = biological target: T6, S100A15 (Homo sapiens, UniProt Q86SG5); assay: direct fluorescence polarization (FP), S100A15; details: S100A15, 50 nM labeled foldamer, 20 mM HEPES pH 7.5, 150 mM NaCl, 1 mM CaCl2, 0.5 mM TCEP, 0.01% Tween20, quadratic fit, mean ± SEM, three technical repeats, threshold 1 mM
# T6 sequence (Q86SG5 1-101): T3 sequence (P31151 1-101) with R22G, D25G, T52I, N53H, D57T, T84A
# Protocol: as §1, §2, §3
# S100A6 = S100A6 (Homo sapiens, UniProt P06703); assay: direct fluorescence polarization (FP), S100A6
# Excerpt: as §4, §2, §3
SMILES,Kd (S100A13) [µM],Kd (S100A3) [µM],Kd (S100A7) [µM],Kd (S100Z) [µM],Kd (S100A2) [µM],Kd (S100P) [µM],Kd (S100A15) [µM],Kd (S100A6) [µM]
CC(C)C[C@@H](CC(=O)N[C@H]1CCCC[C@@H]1C(=O)NCC(=O)N[C@@H](CCCCNC(=O)c1ccc2c(c1)C1(OC2=O)c2ccc(O)cc2Oc2cc(O)ccc21)C(N)=O)NC(=O)[C@H]1CCCC[C@@H]1NC(=O)[C@H]1CCCC[C@@H]1NC(=O)C[C@@H](NC(=O)[C@H]1CCCC[C@@H]1N)C(C)C [fVL],> 1000,> 1000,> 1000,> 1000,210 ± 110,> 1000,> 1000,–
C[C@@H](O)[C@@H](CC(=O)N[C@H]1CCCC[C@@H]1C(=O)N[C@H]1CCCC[C@@H]1C(=O)N[C@H](CC(=O)N[C@H]1CCCC[C@@H]1C(=O)NCC(=O)N[C@@H](CCCCNC(=O)c1ccc2c(c1)C1(OC2=O)c2ccc(O)cc2Oc2cc(O)ccc21)C(N)=O)Cc1c[nH]c2ccccc12)NC(=O)[C@H]1CCCC[C@@H]1N [fTW],> 1000,> 1000,> 1000,–,–,–,> 1000,–
CC[C@H](C)[C@@H](CC(=O)N[C@H]1CCCC[C@@H]1C(=O)N[C@H]1CCCC[C@@H]1C(=O)N[C@H](CC(=O)N[C@H]1CCCC[C@@H]1C(=O)NCC(=O)N[C@@H](CCCCNC(=O)c1ccc2c(c1)C1(OC2=O)c2ccc(O)cc2Oc2cc(O)ccc21)C(N)=O)Cc1ccccc1)NC(=O)[C@H]1CCCC[C@@H]1N [fIF],> 1000,180 ± 8.4,> 1000,480 ± 31,38 ± 1.5,140 ± 5.8,> 1000,–
CC(C)C[C@@H](CC(=O)N[C@H]1CCCC[C@@H]1C(=O)NCC(=O)N[C@@H](CCCCNC(=O)c1ccc2c(c1)C1(OC2=O)c2ccc(O)cc2Oc2cc(O)ccc21)C(N)=O)NC(=O)[C@H]1CCCC[C@@H]1NC(=O)[C@H]1CCCC[C@@H]1NC(=O)C[C@H](Cc1c[nH]c2ccccc12)NC(=O)[C@H]1CCCC[C@@H]1N [fWL],> 1000,> 1000,23 ± 1.5,> 1000,11 ± 0.39,75 ± 5.8,39 ± 2.4,30 ± 1.7
CC[C@H](C)[C@@H](CC(=O)N[C@H]1CCCC[C@@H]1C(=O)N[C@H]1CCCC[C@@H]1C(=O)N[C@H](CC(=O)N[C@H]1CCCC[C@@H]1C(=O)NCC(=O)N[C@@H](CCCCNC(=O)c1ccc2c(c1)C1(OC2=O)c2ccc(O)cc2Oc2cc(O)ccc21)C(N)=O)CC(C)C)NC(=O)[C@H]1CCCC[C@@H]1N [fIL],> 1000,> 1000,> 1000,> 1000,78 ± 8.7,330 ± 92,> 1000,–
